Residues, ends and D or L forms follow the SMILES beside them.
Assays:
Type in all cases: cell-based
[1] = tested on: beneficial oral bacteria and pathogenic oral bacteria; assay: Metabolic activity, whole panel: prebiotic effect; settings: for prebiotic effects (metabolic activity): threshold value of 2
Experimental: Substrates that were able to increase the metabolic activity of at least one of the above beneficial bacteria while not or only minimally increasing the growth of the pathogenic bacteria are considered to be prebiotic substrates. The extent of metabolic activity of the tested bacteria in the presence of the above-mentioned dipeptides after 24 hours and 48 hours was investigated through a high throughput phenotype microarray system (PM) for microbial cells (Biolog Inc.). Each PM can contain up to 95 different biochemical compounds (e.g. di-peptides) that may act as substrates for bacteria as well as one negative control, not containing the substrates. Microarray plates were used in which the different wells of each plate were pre-loaded (by the manufacturer, Biolog Inc.) with different di-peptides to be tested. Each bacterial species was tested using a separate microarray plate. Thus, a single bacterial species was tested with a variety of dipeptides on each particular plate. The microarrays are based on redox technology, using cell respiration as a universal reporter. Active cell respiration results in the reduction of a tetrazolium dye and in the formation of a strong color—for example, when using the tetrazolium dye “Biolog Redox Dye Mix D”, the color changes from transparent/colourless to purple when the dye is reduced. The observation of this color change indicates which of the substrates improve the metabolic activity and health of the cells. Each bacterial species was collected from blood agar plates (incubated for 48 hours anaerobically at 37° C.) and transferred to an IF-0 Base inoculation fluid (Biolog Inc.), which is a nutritionally poor medium. The resulting cell suspension was adjusted to a transmittance of 42% (relative to the transmittance of the base inoculation fluid with no bacterial species present) at 492 nm using a BioRad SmartSpec 3000 Photometer (the adjustment being effected by adding either further inoculation fluid or further bacteria until the transmittance of 42% was achieved). A 1:5 dilution of this suspension was prepared by mixing 3 mL of the 42% transmittance cell suspension with 15 mL of an inoculation fluid (which inoculation fluid was formed by mixing 11.6 mL sterile water, 62.5 mL IF-0 base inoculation fluid and 0.9 mL of the tetrazolium dye “Biolog Redox Dye mix D”), resulting in a final cell density which was equal to 85% transmittance using a BioRad SmartSpec 3000 Photometer. 680 μL of a 2M sodium succinate/200 μM ferric citrate solution in distilled water was added to 68 mL of the 85% transmittance cell suspension and 100 μL of this mixture was added to each well (the various di-peptides being already present in powder form in the relevant wells of the plate as obtained from the supplier i.e. Biolog Inc.). All plates were incubated in an anaerobic atmosphere at 37° C. Color changes were measured spectrophotometrically at 492 nm (Thermo Scientific Multiskan Ascent) at 24 hrs and 48 hrs using the same plate at both time points. […] After 24 hrs and 48 hrs under continuous shaking in a Multiscan microplate reader, the optical density (OD) of the synthetic medium at 24 hours and 48 hours was measured (using the microplate reader) at a wavelength of 492 nm for each combination of bacterium/dipeptide, and for each of their respective controls (i.e. which contained the particular bacterium but no dipeptide). […] The experiment was carried out three times for each combination of bacterium with dipeptide, with each repeat being carried out on a different day (thus providing three biological replicas). The controls were also carried out three times, as above. The values shown are the average (mean) of the three single values obtained (as detailed above) for each combination of bacterium with dipeptide, at 24 hrs and at 48 hrs. […] This value was selected in order to exclude low-stimulating metabolites and avoid false positive results.

[2] = tested on: Aggregatibacter actinomycetemcomitans; assay: Metabolic activity, Biolog phenotype microarray; settings: control without dipeptide = 1
Experimental: (§1) The extent of metabolic activity of the tested bacteria in the presence of the above-mentioned dipeptides after 24 hours and 48 hours was investigated through a high throughput phenotype microarray system (PM) for microbial cells (Biolog Inc.). Each PM can contain up to 95 different biochemical compounds (e.g. di-peptides) that may act as substrates for bacteria as well as one negative control, not containing the substrates. Microarray plates were used in which the different wells of each plate were pre-loaded (by the manufacturer, Biolog Inc.) with different di-peptides to be tested. Each bacterial species was tested using a separate microarray plate. Thus, a single bacterial species was tested with a variety of dipeptides on each particular plate. The microarrays are based on redox technology, using cell respiration as a universal reporter. Active cell respiration results in the reduction of a tetrazolium dye and in the formation of a strong color—for example, when using the tetrazolium dye “Biolog Redox Dye Mix D”, the color changes from transparent/colourless to purple when the dye is reduced. The observation of this color change indicates which of the substrates improve the metabolic activity and health of the cells. Each bacterial species was collected from blood agar plates (incubated for 48 hours anaerobically at 37° C.) and transferred to an IF-0 Base inoculation fluid (Biolog Inc.), which is a nutritionally poor medium. The resulting cell suspension was adjusted to a transmittance of 42% (relative to the transmittance of the base inoculation fluid with no bacterial species present) at 492 nm using a BioRad SmartSpec 3000 Photometer (the adjustment being effected by adding either further inoculation fluid or further bacteria until the transmittance of 42% was achieved). A 1:5 dilution of this suspension was prepared by mixing 3 mL of the 42% transmittance cell suspension with 15 mL of an inoculation fluid (which inoculation fluid was formed by mixing 11.6 mL sterile water, 62.5 mL IF-0 base inoculation fluid and 0.9 mL of the tetrazolium dye “Biolog Redox Dye mix D”), resulting in a final cell density which was equal to 85% transmittance using a BioRad SmartSpec 3000 Photometer. 680 μL of a 2M sodium succinate/200 μM ferric citrate solution in distilled water was added to 68 mL of the 85% transmittance cell suspension and 100 μL of this mixture was added to each well (the various di-peptides being already present in powder form in the relevant wells of the plate as obtained from the supplier i.e. Biolog Inc.). All plates were incubated in an anaerobic atmosphere at 37° C. Color changes were measured spectrophotometrically at 492 nm (Thermo Scientific Multiskan Ascent) at 24 hrs and 48 hrs using the same plate at both time points. […] After 24 hrs and 48 hrs under continuous shaking in a Multiscan microplate reader, the optical density (OD) of the synthetic medium at 24 hours and 48 hours was measured (using the microplate reader) at a wavelength of 492 nm for each combination of bacterium/dipeptide, and for each of their respective controls (i.e. which contained the particular bacterium but no dipeptide). […] The experiment was carried out three times for each combination of bacterium with dipeptide, with each repeat being carried out on a different day (thus providing three biological replicas). The controls were also carried out three times, as above. The values shown are the average (mean) of the three single values obtained (as detailed above) for each combination of bacterium with dipeptide, at 24 hrs and at 48 hrs.

Prevotella intermedia = assay: Metabolic activity, Biolog phenotype microarray; settings: control without dipeptide = 1
Experimental: as §1

Porphyromonas gingivalis = assay: Metabolic activity, Biolog phenotype microarray; settings: control without dipeptide = 1
Experimental: as §1

Streptococcus gordonii = assay: Metabolic activity, Biolog phenotype microarray; settings: control without dipeptide = 1
Experimental: as §1

Streptococcus mitis = assay: Metabolic activity, Biolog phenotype microarray; settings: control without dipeptide = 1
Experimental: as §1

Tannerella forsythia = assay: Metabolic activity, Biolog phenotype microarray; settings: control without dipeptide = 1
Experimental: as §1

Actinomyces viscosus = assay: Metabolic activity, Biolog phenotype microarray; settings: control without dipeptide = 1
Experimental: as §1

Veillonella parvula = assay: Metabolic activity, Biolog phenotype microarray; settings: control without dipeptide = 1
Experimental: as §1

Capnocytophaga sputigena = assay: Metabolic activity, Biolog phenotype microarray; settings: control without dipeptide = 1
Experimental: as §1

Streptococcus mutans = assay: Metabolic activity, Biolog phenotype microarray; settings: control without dipeptide = 1
Experimental: as §1

Actinomyces naeslundii = assay: Metabolic activity, Biolog phenotype microarray; settings: control without dipeptide = 1
Experimental: as §1

Streptococcus sobrinus = assay: Metabolic activity, Biolog phenotype microarray; settings: control without dipeptide = 1
Experimental: as §1

Streptococcus salivarius = assay: Metabolic activity, Biolog phenotype microarray; settings: control without dipeptide = 1
Experimental: as §1

Fusobacterium nucleatum = assay: Metabolic activity, Biolog phenotype microarray; settings: control without dipeptide = 1
Experimental: as §1

Streptococcus sanguinis = assay: Metabolic activity, Biolog phenotype microarray; settings: control without dipeptide = 1
Experimental: as §1

Row | SMILES | metabolic activity: OD 492 nm divided by OD of control ([2]; 24 hrs) | metabolic activity: OD 492 nm divided by OD of control ([2]; 48 hrs) | metabolic activity: OD 492 nm divided by OD of control (Prevotella intermedia; 24 hrs) | metabolic activity: OD 492 nm divided by OD of control (Prevotella intermedia; 48 hrs) | metabolic activity: OD 492 nm divided by OD of control (Porphyromonas gingivalis; 24 hrs) | metabolic activity: OD 492 nm divided by OD of control (Porphyromonas gingivalis; 48 hrs) | metabolic activity: OD 492 nm divided by OD of control (Streptococcus gordonii; 24 hrs) | metabolic activity: OD 492 nm divided by OD of control (Streptococcus gordonii; 48 hrs) | metabolic activity: OD 492 nm divided by OD of control (Streptococcus mitis; 24 hrs) | metabolic activity: OD 492 nm divided by OD of control (Streptococcus mitis; 48 hrs) | metabolic activity: OD 492 nm divided by OD of control (Tannerella forsythia; 24 hrs) | metabolic activity: OD 492 nm divided by OD of control (Tannerella forsythia; 48 hrs) | metabolic activity: OD 492 nm divided by OD of control (Actinomyces viscosus; 24 hrs) | metabolic activity: OD 492 nm divided by OD of control (Actinomyces viscosus; 48 hrs) | metabolic activity: OD 492 nm divided by OD of control (Veillonella parvula; 24 hrs) | metabolic activity: OD 492 nm divided by OD of control (Veillonella parvula; 48 hrs) | metabolic activity: OD 492 nm divided by OD of control (Capnocytophaga sputigena; 24 hrs) | metabolic activity: OD 492 nm divided by OD of control (Capnocytophaga sputigena; 48 hrs) | metabolic activity: OD 492 nm divided by OD of control (Streptococcus mutans; 24 hrs) | metabolic activity: OD 492 nm divided by OD of control (Streptococcus mutans; 48 hrs) | further results
1 | NC(Cc1c[nH]cn1)C(=O)NC(Cc1c[nH]c2ccccc12)C(=O)O (stereo not drawn) [His-Trp] | 0.9439 | 0.9818 | 1.0278 | 1.2057 | 1.0126 | 1.3518 | 1.0431 | 1.1070 | 0.9734 | 1.0242 | 0.8973 | 0.9897 | 1.8735 | 2.2797 | 1.1364 | 1.4269 | 1.3266 | 1.3068 | 1.0292 | 1.5031 | prebiotic effects (metabolic activity) ([1]; 48 hrs): exhibited prebiotic effects; metabolic activity: OD 492 nm divided by OD of control (Actinomyces naeslundii; 24 hrs): 1.3153; metabolic activity: OD 492 nm divided by OD of control (Actinomyces naeslundii; 48 hrs): 1.5439; metabolic activity: OD 492 nm divided by OD of control (Streptococcus sobrinus; 24 hrs): 1.0811; metabolic activity: OD 492 nm divided by OD of control (Streptococcus sobrinus; 48 hrs): 1.2074; metabolic activity: OD 492 nm divided by OD of control (Streptococcus salivarius; 24 hrs): 0.9767; metabolic activity: OD 492 nm divided by OD of control (Streptococcus salivarius; 48 hrs): 1.0689; metabolic activity: OD 492 nm divided by OD of control (Fusobacterium nucleatum; 24 hrs): 0.9185; metabolic activity: OD 492 nm divided by OD of control (Fusobacterium nucleatum; 48 hrs): 0.9774; metabolic activity: OD 492 nm divided by OD of control (Streptococcus sanguinis; 24 hrs): 1.0228; metabolic activity: OD 492 nm divided by OD of control (Streptococcus sanguinis; 48 hrs): 1.0830
2 | CC(C)C(NC(=O)C(N)CO)C(=O)O (stereo not drawn) [Ser-Val] (H-Ser-Val-OH; configuration not given here) | 1.4527 | 1.9697 | 1.4709 | 1.7953 | 1.3880 | 1.9267 | 1.4328 | 1.7640 | 1.4166 | 1.8051 | 1.2842 | 1.7260 | 2.1120 | 2.4349 | 1.2776 | 1.3095 | 1.4541 | 1.4933 | 1.4622 | 2.0721 | prebiotic effects (metabolic activity) ([1]; 24 hrs): exhibited prebiotic effects; speed of metabolism by beneficial versus pathogenic bacteria ([1]; value of 2 reached at 24 hrs for beneficial but not pathogenic bacteria): metabolized faster by the beneficial bacteria than by the pathogenic bacteria; metabolic activity: OD 492 nm divided by OD of control (Actinomyces naeslundii; 24 hrs): 1.4073; metabolic activity: OD 492 nm divided by OD of control (Actinomyces naeslundii; 48 hrs): 1.7338; metabolic activity: OD 492 nm divided by OD of control (Streptococcus sobrinus; 24 hrs): 1.3133; metabolic activity: OD 492 nm divided by OD of control (Streptococcus sobrinus; 48 hrs): 1.8354; metabolic activity: OD 492 nm divided by OD of control (Streptococcus salivarius; 24 hrs): 1.3826; metabolic activity: OD 492 nm divided by OD of control (Streptococcus salivarius; 48 hrs): 1.9626; metabolic activity: OD 492 nm divided by OD of control (Fusobacterium nucleatum; 24 hrs): 1.3741; metabolic activity: OD 492 nm divided by OD of control (Fusobacterium nucleatum; 48 hrs): 1.5983; metabolic activity: OD 492 nm divided by OD of control (Streptococcus sanguinis; 24 hrs): 1.2030; metabolic activity: OD 492 nm divided by OD of control (Streptococcus sanguinis; 48 hrs): 1.5280

Reference: patent publication US10159640B2, “Prebiotic oral care compositions containing amino acids” (COLGATE-PALMOLIVE COMPANY, priority 2013, dated 2018)
